Results as given in patent US7041687B2, “Indazole compounds useful as protein kinase inhibitors” (Vertex Pharmaceuticals Incorporated, priority 2002, dated 2006).

How the values were obtained:
Format in all cases: biochemical
AKT-3 = AKT-3 (Homo sapiens, UniProt Q9Y243); assay: AKT-3 inhibition assay (standard coupled enzyme assay); conditions: 170 μM ATP, 200 μM peptide, 45 nM AKT, 30° C.
PDK-1 = molecular target: T1, PDK-1 (Homo sapiens, UniProt O15530); assay: PDK-1 inhibition assay (radioactive-phosphate incorporation); conditions: 40 μM ATP, 65 μM PDKtide, 25 nM PDK-1, 30° C.
T1 sequence (O15530 1-556): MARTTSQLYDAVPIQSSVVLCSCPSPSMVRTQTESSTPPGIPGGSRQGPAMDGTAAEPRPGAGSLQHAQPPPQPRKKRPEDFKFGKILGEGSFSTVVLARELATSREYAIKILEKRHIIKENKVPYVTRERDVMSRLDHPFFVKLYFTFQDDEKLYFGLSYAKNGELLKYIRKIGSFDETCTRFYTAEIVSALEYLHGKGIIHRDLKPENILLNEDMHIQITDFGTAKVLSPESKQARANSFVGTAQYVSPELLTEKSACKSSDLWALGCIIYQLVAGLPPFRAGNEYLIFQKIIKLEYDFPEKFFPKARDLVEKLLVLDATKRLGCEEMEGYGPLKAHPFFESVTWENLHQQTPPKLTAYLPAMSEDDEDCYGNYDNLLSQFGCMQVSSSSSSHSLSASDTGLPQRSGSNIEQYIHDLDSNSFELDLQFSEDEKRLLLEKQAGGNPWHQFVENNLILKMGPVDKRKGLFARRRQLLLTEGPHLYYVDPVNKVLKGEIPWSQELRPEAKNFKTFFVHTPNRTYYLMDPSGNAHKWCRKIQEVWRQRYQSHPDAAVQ

PKA = PKA (Homo sapiens, UniProt P17612); assay: PKA inhibition assay (standard coupled enzyme assay); conditions: 50 μM ATP, 80 μM Kemptide, 18 nM PKA, 30° C.
Procedure, shortened: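 Coupled PK/LDH assay (NADH read) with 18 nM PKA, 50 μM ATP and 80 μM Kemptide in 100 mM HEPES 7.5, 10 mM MgCl2, 3% DMSO at 30 °C. Compound dilutions (typically from 5 μM final) preincubated 10 min before ATP start; initial rates over 15 min gave IC50 and Ki by non-linear regression.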

Chain of AKT-3 (Q9Y243 whole entry): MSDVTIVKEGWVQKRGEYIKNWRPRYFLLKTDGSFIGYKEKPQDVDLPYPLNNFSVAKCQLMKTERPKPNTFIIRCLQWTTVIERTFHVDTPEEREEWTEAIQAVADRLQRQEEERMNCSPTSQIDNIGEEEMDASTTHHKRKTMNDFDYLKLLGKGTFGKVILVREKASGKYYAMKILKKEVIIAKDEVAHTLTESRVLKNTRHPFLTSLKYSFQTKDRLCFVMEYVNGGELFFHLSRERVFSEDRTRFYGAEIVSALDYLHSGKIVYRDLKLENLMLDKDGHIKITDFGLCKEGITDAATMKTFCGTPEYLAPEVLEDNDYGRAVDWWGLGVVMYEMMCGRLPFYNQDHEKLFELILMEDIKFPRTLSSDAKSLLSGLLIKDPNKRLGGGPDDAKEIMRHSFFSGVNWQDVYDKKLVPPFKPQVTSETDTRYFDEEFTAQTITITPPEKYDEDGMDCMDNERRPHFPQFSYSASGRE

Row | Structure (SMILES) | Ki (AKT-3) | Ki (PDK-1) | Ki (PKA)
1 | NCCC(C(=O)Nc1ccc2[nH]ncc2c1)c1cccc(OCc2ccccc2)c1 (stereo not drawn) [Compound I-1006] | < 1 µM | < 1 µM | < 1 µM
2 | NCCC(C(=O)Nc1ccc2[nH]nc(NC(=O)c3cccc(F)c3)c2c1)c1ccc(Cl)c(Cl)c1 (stereo not drawn) [Compound I-179] | < 1 µM | < 1 µM | < 1 µM
3 | NCCC(C(=O)Nc1ccc2[nH]nc(NC(=O)c3cccs3)c2c1)c1ccccc1 (stereo not drawn) [Compound I-1043] | < 1 µM | < 1 µM | < 1 µM
4 | COC(=O)c1ccc(-c2n[nH]c3ccc(NC(=O)C(CCN)c4ccccc4)cc23)cc1 (stereo not drawn) [Compound I-235] | 1 to 10 µM | < 1 µM | < 1 µM
5 | CC(=O)Nc1n[nH]c2ccc(NC(=O)C(CCN)c3ccc(Cl)c(Cl)c3)cc12 (stereo not drawn) [Compound I-140] | < 1 µM | 1 to 3 µM | < 1 µM
6 | CN(C)CC(C(=O)Nc1ccc2[nH]ncc2c1)c1ccc(Cl)c(Cl)c1 (stereo not drawn) [Compound I-227] | < 1 µM | > 3 µM | < 1 µM
7 | COc1ccccc1C(CCN)C(=O)Nc1ccc2[nH]ncc2c1 (stereo not drawn) [Compound I-113] | 1 to 10 µM | > 3 µM | < 1 µM
8 | NCCC(C(=O)Nc1ccc2[nH]nc(NC(=O)c3cccnc3)c2c1)c1ccc(Cl)c(Cl)c1 (stereo not drawn) [Compound I-194] | < 1 µM | < 1 µM | < 1 µM
9 | N#Cc1ccc(Nc2n[nH]c3ccc(NC(=O)C(CCN)c4ccc(Cl)c(Cl)c4)cc23)cc1 (stereo not drawn) [Compound I-164] | < 1 µM | 1 to 3 µM | < 1 µM
10 | NCCC(C(=O)Nc1ccc2[nH]nc(-c3ccccc3)c2c1)c1ccccc1 (stereo not drawn) [Compound I-1028] | 1 to 10 µM | < 1 µM | < 1 µM
11 | NCCC(C(=O)Nc1ccc2[nH]nc(-c3ccc(F)cc3)c2c1)c1ccc(Cl)c(Cl)c1 (stereo not drawn) [Compound I-234] | < 1 µM | < 1 µM | < 1 µM
12 | NCCC(C(=O)Nc1ccc2[nH]nc(NC(=O)c3ccc(Cl)cc3)c2c1)c1ccc(Cl)c(Cl)c1 (stereo not drawn) [Compound I-182] | < 1 µM | < 1 µM | < 1 µM
13 | NCCC(C(=O)Nc1ccc2[nH]nc(Nc3cccc(Cl)c3)c2c1)c1ccc(Cl)c(Cl)c1 (stereo not drawn) [Compound I-162] | < 1 µM | < 1 µM | < 1 µM
14 | N#Cc1cccc(Nc2n[nH]c3ccc(NC(=O)C(CCN)c4ccc(Cl)c(Cl)c4)cc23)c1 (stereo not drawn) [Compound I-165] | < 1 µM | < 1 µM | < 1 µM
15 | CCCc1ccc(C(=O)Nc2n[nH]c3ccc(NC(=O)C(CCN)c4ccc(Cl)c(Cl)c4)cc23)cc1 (stereo not drawn) [Compound I-188] | < 1 µM | 1 to 3 µM | < 1 µM
16 | NCCC(C(=O)Nc1ccc2[nH]nc(NC(=O)c3ccc(-c4ccccc4)cc3)c2c1)c1ccc(Cl)c(Cl)c1 (stereo not drawn) [Compound I-172] | < 1 µM | < 1 µM | < 1 µM
17 | Cc1cccc(C(=O)Nc2n[nH]c3ccc(NC(=O)C(CCN)c4ccc(Cl)c(Cl)c4)cc23)c1 (stereo not drawn) [Compound I-185] | < 1 µM | 1 to 3 µM | < 1 µM
18 | NCC(C(=O)Nc1ccc2[nH]ncc2c1)c1ccc(Cl)cc1 (stereo not drawn) [Compound I-242] | < 1 µM | < 1 µM | < 1 µM
19 | NC(C(=O)Nc1ccc2[nH]ncc2c1)c1ccc(Cl)c(Cl)c1 (stereo not drawn) [Compound I-54] | 1 to 10 µM | > 3 µM | < 1 µM
20 | NCCCC(C(=O)Nc1ccc2[nH]ncc2c1)c1ccc(Cl)c(Cl)c1 (stereo not drawn) [Compound I-155] | < 1 µM | > 3 µM | < 1 µM
21 | NCCC(C(=O)Nc1ccc2[nH]nc(Nc3cccc(OCc4ccccc4)c3)c2c1)c1ccc(Cl)c(Cl)c1 (stereo not drawn) [Compound I-161] | < 1 µM | > 3 µM | < 1 µM

Results, then the compound that gave them:

Row | Ki (AKT-3) | Ki (PDK-1) | Ki (PKA) | Structure (SMILES)
22 | < 1 µM | < 1 µM | < 1 µM | NCCC(C(=O)Nc1ccc2[nH]ncc2c1)c1cccc(Cl)c1 (stereo not drawn) [Compound I-100]
23 | < 1 µM | > 3 µM | < 1 µM | Cc1n[nH]c2ccc(NC(=O)C(CCN)c3ccc(Cl)c(Cl)c3O)cc12 (stereo not drawn) [Compound I-133]
24 | < 1 µM | < 1 µM | < 1 µM | NCCC(C(=O)Nc1ccc2[nH]ncc2c1)c1cccc(Cl)c1Cl (stereo not drawn) [Compound I-106]
25 | < 1 µM | > 3 µM | < 1 µM | NCCC(C(=O)Nc1ccc2[nH]nc(NC(=O)c3cccc(C(F)(F)F)c3)c2c1)c1ccc(Cl)c(Cl)c1 (stereo not drawn) [Compound I-200]
26 | 1 to 10 µM | < 1 µM | < 1 µM | NCCC(C(=O)Nc1ccc2[nH]nc(-c3ccc(-c4ccccc4)cc3)c2c1)c1ccccc1 (stereo not drawn) [Compound I-236]
27 | < 1 µM | < 1 µM | < 1 µM | NCCC(C(=O)Nc1ccc2[nH]nc(N)c2c1)c1ccc(Cl)c(Cl)c1 (stereo not drawn) [Compound I-138]
28 | < 1 µM | < 1 µM | < 1 µM | Cc1n[nH]c2ccc(NC(=O)[C@@H](CCN)c3cccc(Cl)c3F)cc12 [Compound I-126]
29 | < 1 µM | < 1 µM | < 1 µM | NCCC(C(=O)Nc1ccc2[nH]nc(NC(=O)c3cccs3)c2c1)c1ccc(Cl)c(Cl)c1 (stereo not drawn) [Compound I-169]
30 | < 1 µM | < 1 µM | < 1 µM | NCCC(C(=O)Nc1ccc2[nH]nc(NC(=O)c3ccc(Br)cc3)c2c1)c1ccc(Cl)c(Cl)c1 (stereo not drawn) [Compound I-189]
31 | < 1 µM | > 3 µM | < 1 µM | CNc1n[nH]c2ccc(NC(=O)C(CCN)c3ccc(Cl)c(Cl)c3)cc12 (stereo not drawn) [Compound I-134]
32 | < 1 µM | < 1 µM | < 1 µM | NCC[C@H](C(=O)Nc1ccc2[nH]nc(NC(=O)c3cccs3)c2c1)c1ccccc1 [Compound I-1044]
33 | 1 to 10 µM | < 1 µM | < 1 µM | NCCC(C(=O)Nc1ccc2[nH]nc(NC(=O)c3ccco3)c2c1)c1ccccc1 (stereo not drawn) [Compound I-1041]
34 | < 1 µM | < 1 µM | < 1 µM | Cc1n[nH]c2ccc(NC(=O)C(CCN)c3ccc(Cl)c(Cl)c3)cc12 (stereo not drawn) [Compound I-117]
35 | 10 to 20 µM | < 1 µM | 1 to 5 µM | NCC[C@H](C(=O)Nc1ccc2[nH]nc(-c3ccccc3)c2c1)c1ccccc1 [Compound I-1053]
36 | < 1 µM | < 1 µM | < 1 µM | Cc1n[nH]c2ccc(NC(=O)C(CCN)c3ccc(Cl)s3)cc12 (stereo not drawn) [Compound I-139]
37 | < 1 µM | > 3 µM | < 1 µM | NC[C@@H](C(=O)Nc1ccc2[nH]ncc2c1)c1ccc(Cl)c(Cl)c1 [Compound I-247]
38 | < 1 µM | < 1 µM | < 1 µM | NCCC(C(=O)Nc1ccc2[nH]ncc2c1)c1cccc(Br)c1 (stereo not drawn) [Compound I-110]
39 | < 1 µM | > 3 µM | < 1 µM | C=Cc1cccc(C(=O)Nc2n[nH]c3ccc(NC(=O)C(CCN)c4ccc(Cl)c(Cl)c4)cc23)c1 (stereo not drawn) [Compound I-196]
40 | < 1 µM | > 3 µM | < 1 µM | NCCC(C(=O)Nc1ccc2[nH]nc(NC(=O)c3cc(F)cc(C(F)(F)F)c3)c2c1)c1ccc(Cl)c(Cl)c1 (stereo not drawn) [Compound I-203]
